The target of experiment [1] is T1, human E3 ubiquitin-protein ligase RNF31 (HOIP) (Homo sapiens, UniProt Q96EP0).
T1 sequence (Q96EP0 695-1072 limits assumed): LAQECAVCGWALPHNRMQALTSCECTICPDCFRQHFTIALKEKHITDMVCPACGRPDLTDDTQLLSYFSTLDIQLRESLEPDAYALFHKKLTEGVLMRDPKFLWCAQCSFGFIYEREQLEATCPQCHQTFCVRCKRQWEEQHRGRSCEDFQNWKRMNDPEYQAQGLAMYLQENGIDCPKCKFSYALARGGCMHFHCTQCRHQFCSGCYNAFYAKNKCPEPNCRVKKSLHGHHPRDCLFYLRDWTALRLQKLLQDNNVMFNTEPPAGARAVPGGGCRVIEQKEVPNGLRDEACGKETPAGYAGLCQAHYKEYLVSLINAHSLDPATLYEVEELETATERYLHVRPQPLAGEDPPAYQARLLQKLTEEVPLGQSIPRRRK
Put plainly: Cell-free HTRF-based HOIP inhibition assay. The format is biochemical. In short, it runs like this:
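Recombinant human HOIP fragment (E. coli) preincubated with compounds (100-0.005 μM, 1% DMSO) and E1 for 1 h at 25° C. E2 and substrates then added; reaction 2.5 h at 25° C. HTRF read-out, excitation 337 nm, emissions 665/620 nm.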

In experiment [2] the test system is bladder carcinoma RT4 cell line. As to the kind of experiment: TNF-α-induced cytotoxicity assay (CellTiter-Glo viability). In kind it is cell-based. Particulars: Homo sapiens, RT-4, 72 h. An outline of the steps:
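RT4 bladder carcinoma cells, 1000 per well, stimulated with 1.25 ng/mL TNFα together with compound for 72 h at 37° C., 5% CO2. Viability read by CellTiter-Glo luminescence, proportional to cellular ATP, as a measure of HOIP-dependent cytotoxicity.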

A further experiment has as its system NF-κB signaling pathway. Put plainly: Cell-based dual luciferase NF-κB reporter assay (HEK293 cells, TNF stimulated). Particulars: Homo sapiens, HEK293. An outline of the steps:
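HEK293 cells transfected with Firefly luciferase and NF-κB-response-element NanoLuc plasmids; compounds at 100–0.005 µM in 1% DMSO. Cells stimulated with 2.5 ng/mL TNF 30 min after compound addition. Firefly and NanoLuc activities read after 6 h by Nano-Glo dual-luciferase detection.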
For orientation: A reporter such as luciferase makes a cellular process visible.

Structures are written as SMILES.

For orientation: IC50 means the concentration at which inhibition is half-maximal. A high value points to weaker potency. With `COc1ccc(S(=O)(=O)/C=C/CNC(=O)c2cc3c([nH]c2=O)CCCC3)cc1F` [Example 19, N-[(2E)-3-(3-fluoro-4-methoxybenzenesulfonyl)prop-2-en-1-yl]-2-oxo-1,2,5,6,7,8-hexahydroquinoline-3-carboxamide], the concentration for half-maximal inhibition (IC50) in experiment [1] is at most 100 nM; in experiment [2], at most 1000 nM; in the experiment with NF-κB signaling pathway, at most 1000 nM.

In the case of `N=S(=O)(/C=C/CNC(=O)c1cc2c([nH]c1=O)CCCC2)c1ccc(F)cc1F` (stereo not drawn) [Example 135, N-[(2E)-3-[(2,4-difluorophenyl)(imino)oxo-λ^6-sulfanyl]prop-2-en-1-yl]-2-oxo-1,2,5,6,7,8-hexahydroquinoline-3-carboxamide], the IC50 in experiment [1] was at most 1000 nM; in experiment [2] it was at most 10000 nM; in the experiment on NF-κB signaling pathway, at most 1000 nM.

For the compound `N=S(=O)(/C=C/CNC(=O)c1cc2c([nH]c1=O)CCCC2)c1ccc(OC(F)(F)F)cc1` (stereo not drawn) [Example 65, N-[(2E)-3-[imino(oxo)[4-(trifluoromethoxy)phenyl]-%^6-sulfanyl]prop-2-en-1-yl]-2-oxo-1,2,5,6,7,8-hexahydroquinoline-3-carboxamide], the IC50 (in experiment [1]; in experiment [2]; with NF-κB signaling pathway) was at most 1000 nM in each case.

Regarding `O=C(NC/C=C/S(=O)(=O)c1ccc(F)cc1F)c1cc(-c2ccccc2)c[nH]c1=O` [Example 127, N-[(2E)-3-(2,4-difluorobenzenesulfonyl)prop-2-en-1-yl]-2-oxo-5-phenyl-1,2-dihydropyridine-3-carboxamide], the half-inhibitory concentration (IC50) in experiment [1] is at most 1000 nM; in experiment [2], at most 10000 nM; with NF-κB signaling pathway, at most 1000 nM.

Regarding `COc1c(C)cc(S(=N)(=O)/C=C/CNC(=O)c2cc3c([nH]c2=O)CCCC3)cc1C` (stereo not drawn) [Example 63, N-[(2E)-3-[Imino(4-methoxy-3,5-dimethylphenyl)oxo-λ^6-sulfanyl]prop-2-en-1-yl]-2-oxo-1,2,5,6,7,8-hexahydroquinoline-3-carboxamide], the IC50 (in experiment [1]; in experiment [2]; in the experiment with NF-κB signaling pathway) was at most 1000 nM each time.

For `N=S(=O)(/C=C/CNC(=O)c1cc2c([nH]c1=O)CCCC2)c1cccc(Oc2ccccc2)c1` (stereo not drawn) [Example 146, N-[(2E)-3-[imino(oxo)(3-phenoxyphenyl)-λ^6-sulfanyl]prop-2-en-1-yl]-2-oxo-1,2,5,6,7,8-hexahydroquinoline-3-carboxamide], the half-inhibitory concentration (IC50) in experiment [1] is at most 100 nM; in experiment [2] it was at most 1000 nM; in the experiment on NF-κB signaling pathway, at most 1000 nM.

Regarding `O=C(NC/C=C/S(=O)(=O)c1ccccc1Cl)c1cc2c([nH]c1=O)CCCC2` [Example 41, N-[(2E)-3-(2-chlorobenzenesulfonyl)prop-2-en-1-yl]-2-oxo-1,2,5,6,7,8-hexahydroquinoline-3-carboxamide], the IC50 was at most 100 nM in experiment [1], at most 1000 nM in experiment [2] and at most 1000 nM in the experiment on NF-κB signaling pathway.

Consider `COc1ccc(S(=N)(=O)/C=C/CNC(=O)c2cc3c([nH]c2=O)CCN(C(=O)OC(C)(C)C)C3)cc1F` (stereo not drawn) [Example 152, tert-butyl 3-{[(2E)-3-[(3-fluoro-4-methoxyphenyl)(imino)oxo-λ^6-sulfanyl]prop-2-en-1-yl]carbamoyl}-2-oxo-1,2,5,6,7,8-hexahydro-1,6-naphthyridine-6-carboxylate], for which the IC50 in experiment [1] is at most 100 nM; in experiment [2] it was at most 10000 nM; in the experiment with NF-κB signaling pathway it was at most 10000 nM.

With `N=S(=O)(/C=C/CNC(=O)c1cc2c([nH]c1=O)CCCC2)c1ccc(F)cc1` (stereo not drawn) [Example 6, N-[(2E)-3-[(4-fluorophenyl)(imino)oxo-λ^6-sulfanyl]prop-2-en-1-yl]-2-oxo-1,2,5,6,7,8-hexahydroquinoline-3-carboxamide], the IC50 was at most 1000 nM in experiment [1], at most 1000 nM in experiment [2] and at most 10000 nM in the experiment on NF-κB signaling pathway.

As to `N=S(=O)(/C=C/CNC(=O)c1cc2c([nH]c1=O)CCCC2)c1ccccc1` (stereo not drawn) [Example 60, N-[(2E)-3-[imino(oxo)phenyl-λ^6-sulfanyl]prop-2-en-1-yl]-2-oxo-1,2,5,6,7,8-hexahydroquinoline-3-carboxamide], the IC50 in experiment [1] was at most 1000 nM; in experiment [2], at most 10000 nM; in the experiment on NF-κB signaling pathway it was at most 1000 nM.

For `O=C(NC/C=C/S(=O)(=O)c1ccc(F)cc1)c1cc2c([nH]c1=O)CCCC2` [Example 16, N-[(2E)-3-(4-fluorobenzenesulfonyl)prop-2-en-1-yl]-2-oxo-1,2,5,6,7,8-hexahydroquinoline-3-carboxamide], the IC50 in experiment [1] was at most 100 nM; in experiment [2] it was at most 1000 nM; in the experiment with NF-κB signaling pathway it was at most 1000 nM.

On to `COc1ccc(S(=N)(=O)/C=C/CNC(=O)c2cc3c([nH]c2=O)CCC3)cc1F` (stereo not drawn) [Example 151, N-[(2E)-3-[(3-fluoro-4-methoxyphenyl)(imino)oxo-λ^6-sulfanyl]prop-2-en-1-yl]-2-oxo-1H,2H,5H,6H,7H-cyclopenta[b]pyridine-3-carboxamide], for which the values for the IC50 (in experiment [1]; in experiment [2]; in the experiment with NF-κB signaling pathway) were at most 1000 nM, at most 1000 nM and at most 10000 nM, respectively.

In the case of `O=C(NC/C=C/S(=O)(=O)c1ccccc1)c1cc2c([nH]c1=O)CCN(C(=O)OC1CC1)C2` [Example 78, cyclopropyl 3-{[(2E)-3-(benzenesulfonyl)prop-2-en-1-yl]carbamoyl}-2-oxo-1,2,5,6,7,8-hexahydro-1,6-naphthyridine-6-carboxylate], the IC50 is at most 1000 nM in experiment [1], at most 10000 nM in experiment [2] and at most 1000 nM in the experiment with NF-κB signaling pathway.

For `O=C(NC/C=C/S(=O)(=O)c1ccccc1)c1cc2c([nH]c1=O)CCN(C(=O)OCCc1ccco1)C2` [Example 89, 2-(furan-2-yl)ethyl 3-{[(2E)-3-(benzenesulfonyl)prop-2-en-1-yl]carbamoyl}-2-oxo-1,2,5,6,7,8-hexahydro-1,6-naphthyridine-6-carboxylate], the half-maximal inhibitory concentration (IC50) in experiment [1] was at most 1000 nM; in experiment [2] it was at most 1000 nM; in the experiment with NF-κB signaling pathway, at most 10000 nM.

As for `N=S(=O)(/C=C/CNC(=O)c1cc2c([nH]c1=O)CCN(C(=O)OCCF)C2)c1ccccc1` (stereo not drawn) [Example 181, 2-fluoroethyl 3-{[(2E)-3-[imino(oxo)phenyl-λ^6-sulfanyl]prop-2-en-1-yl]carbamoyl}-2-oxo-1,2,5,6,7,8-hexahydro-1,6-naphthyridine-6-carboxylate], the results for the IC50 (in experiment [1]; in experiment [2]; in the experiment on NF-κB signaling pathway) were at most 1000 nM, at most 10000 nM and at most 100000 nM, respectively.

For the compound `CC1(C)CCc2[nH]c(=O)c(C(=O)NC/C=C/S(=O)(=O)c3ccccc3)cc2C1` [Example 48, N-[(2E)-3-(benzenesulfonyl)prop-2-en-1-yl]-6,6-dimethyl-2-oxo-1,2,5,6,7,8-hexahydroquinoline-3-carboxamide], the IC50 (in experiment [1]; in experiment [2]; with NF-κB signaling pathway) was at most 1000 nM in each case.

Regarding `COc1ccc(S(=N)(=O)/C=C/CNC(=O)c2cc3c([nH]c2=O)CCCCC3)cc1F` (stereo not drawn) [Example 150, N-[(2E)-3-[(3-fluoro-4-methoxyphenyl)(imino)oxo-λ^6-sulfanyl]prop-2-en-1-yl]-2-oxo-1H,2H,5H,6H,7H,8H,9H-cyclohepta[b]pyridine-3-carboxamide], the half-maximal inhibitory concentration (IC50) is at most 1000 nM in experiment [1], at most 1000 nM in experiment [2] and at most 10000 nM in the experiment on NF-κB signaling pathway.

For `O=C(NC/C=C/S(=O)(=O)c1ccccc1)c1cc2c([nH]c1=O)CCN(C(=O)C1CC1c1ccccc1)C2` (stereo not drawn) [Example 125, N-[(2E)-3-(benzenesulfonyl)prop-2-en-1-yl]-2-oxo-6-(2-phenylcyclopropanecarbonyl)-1,2,5,6,7,8-hexahydro-1,6-naphthyridine-3-carboxamide], the figures for the IC50 (in experiment [1]; in experiment [2]; with NF-κB signaling pathway) were at most 1000 nM, at most 10000 nM and at most 10000 nM, respectively.

On to `COc1ccc(S(=N)(=O)/C=C/CNC(=O)c2cc3c([nH]c2=O)CCN(C(=O)OCCF)C3)cc1F` (stereo not drawn) [Example 180, 2-fluoroethyl 3-{[(2E)-3-[(3-fluoro-4-methoxyphenyl)(imino)oxo-λ^6-sulfanyl]prop-2-en-1-yl]carbamoyl}-2-oxo-1,2,5,6,7,8-hexahydro-1,6-naphthyridine-6-carboxylate], for which the IC50 was at most 100 nM in experiment [1], at most 10000 nM in experiment [2] and at most 10000 nM in the experiment on NF-κB signaling pathway.

Take `CC(C)(C)OC(=O)N1CCc2[nH]c(=O)c(C(=O)NC/C=C/S(=O)(=O)c3ccccc3)cc2C1` [Example 10, tert-butyl 3-{[(2E)-3-(benzenesulfonyl)prop-2-en-1-yl]carbamoyl}-2-oxo-1,2,5,6,7,8-hexahydro-1,6-naphthyridine-6-carboxylate]: the IC50 in experiment [1] is at most 100 nM; in experiment [2], at most 10000 nM; in the experiment with NF-κB signaling pathway it was at most 1000 nM.

As for `O=C(NC/C=C/S(=O)(=O)c1ccc(F)cc1Cl)c1cc(-c2ccccc2)c[nH]c1=O` [Example 128, N-[(2E)-3-(2-chloro-4-fluorobenzenesulfonyl)prop-2-en-1-yl]-2-oxo-5-phenyl-1,2-dihydropyridine-3-carboxamide], the IC50 was at most 1000 nM in experiment [1], at most 10000 nM in experiment [2] and at most 10000 nM with NF-κB signaling pathway.

These data come from patent US20260250250A1, “3-(SULPHONYL OR SULFONIMIDOYL)PROP-2-EN-1-YL]-2-OXO-1,2-DIHYDROPYRIDINE-3-CARBOXAMIDE DERIVATIVES” (Flinder Therapeutics B.V., priority 2022, published 2026).
